# Laboratory results from patent publication US20130072427A1, “GPR 119 MODULATORS” (Pfizer Inc., priority 2009, published 2013).
# Values joined by “and” are separate entries in the source; they are usually repeats but may differ in a detail not shown here. Identical values can stand only once.
# Biological target: T1, human GPR119 (Homo sapiens, UniProt Q8TDV5)
# T1 construct: host or cells: HEK293-CRE beta-lactamase cells
# T1 sequence (Q8TDV5 1-335): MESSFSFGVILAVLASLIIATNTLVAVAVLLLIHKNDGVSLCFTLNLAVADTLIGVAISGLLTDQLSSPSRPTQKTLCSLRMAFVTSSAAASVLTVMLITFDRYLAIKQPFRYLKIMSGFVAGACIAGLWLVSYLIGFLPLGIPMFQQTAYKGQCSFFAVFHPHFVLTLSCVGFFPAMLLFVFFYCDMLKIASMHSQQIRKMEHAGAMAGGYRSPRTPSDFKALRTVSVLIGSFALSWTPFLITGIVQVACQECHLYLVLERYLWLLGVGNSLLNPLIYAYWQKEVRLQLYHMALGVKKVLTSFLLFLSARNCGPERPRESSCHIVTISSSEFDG
# Experiment: GPR119 radioligand binding assay ([3H]Cmpd A, membranes of HEK 293FT cells over-expressing hGPR119)
# Settings: competition with 3H-Cmpd A; Ki from IC50 by Cheng-Prusoff; one line per run
# Experimental: HEK 293FT cells (Invitrogen, Carlsbad, Calif.) were grown in a shake flask in 293Freestyle medium (Invitrogen) supplemented with 50 microg/mL neomycin and 10 mM HEPES (37 C, 8% carbon dioxide, shaking). The cells were centrifuged gently (approximately 500×g, 10 minutes) and the pellet resuspended in a mixture of Dulbecco's PBS(minus Mg++/−Ca++) supplemented with 18% fetal bovine serum (Sigma Aldrich) and P1 virus such that the multiplicity of infection (MOI) was 10 and the final cell density was 1.3×10^6/ml (total volume 2.5 liters). The cells were transferred to a 5 liter Wave Bioreactor Wavebag (Wave Technologies, MA) and incubated for 4 hours at 27 degrees Celsius (17 rocks/min, 7 degrees platform angle); at the end of the incubation period, an equal volume (2.5 liters) of 293Freestyle medium supplemented with 30 mM sodium butyrate (Sigma Aldrich) was added (final concentration=15 mM), and the cells were grown for 20 hours (37 degrees Celsius, 8% CO2 [0.2 liters/min}, 25 rocks/minute, 7 degrees platform angle). Cells were harvested via centrifugation (3,000×g, 10 minutes), washed once on DPBS (minus Ca++/Mg++), resuspended in 0.25M sucrose, 25 mM HEPES, 0.5 mM EDTA, pH 7.4 and frozen at −80 degrees Celsius.
# The frozen cells were thawed on ice and centrifuged at 700×g (1400 rpm) for 10 minutes at 4 degrees Celsius. The cell pellet was resuspended in 20 ml phosphate-buffered saline, and centrifuged at 1400 rpm for 10 minutes. The cell pellet was then resuspended in homogenization buffer (10 mM HEPES (Gibco #15630), pH 7.5, 1 mM EDTA (BioSolutions, #BIO260-15), 1 mM EGTA (Sigma, #E-4378), 0.01 mg/ml benzamidine (Sigma #B 6506), 0.01 mg/ml bacitracin (Sigma #B 0125), 0.005 mg/ml leupeptin (Sigma #L 8511), 0.005 mg/ml aprotinin (Sigma #A 1153)) and incubated on ice for 10 minutes. Cells were then lysed with 15 gentle strokes of a tight-fitting glass Dounce homogenizer. The homogenate was centrifuged at 1000×g (2200 rpm) for 10 minutes at 4 degrees Celsius. The supernatant was transferred into fresh centrifuge tubes on ice. The cell pellet was resuspended in homogenization buffer, and centrifuged again at 1000×g (2200 rpm) for 10 minutes at 4 degrees Celsius after which the supernatant was removed and the pellet resuspended in homogenization buffer. This process was repeated a third time, after which the supernatants were combined, Benzonase (Novagen #71206) and MgCl2 (Fluka #63020) were added to final concentrations of 1 U/ml and 6 mM, respectively, and incubated on ice for one hour. The solution was then centrifuged at 25,000×g (15000 rpm) for 20 minutes at 4 degrees Celsius, the supernatant was discarded, and the pellet was resuspended in fresh homogenization buffer (minus Benzonase and MgCl2). After repeating the 25,000×g centrifugation step, the final membrane pellet was resuspended in homogenization buffer and frozen at −80 degrees Celsius. The protein concentration was determined using the Pierce BCA protein assay kit (Pierce reagents A #23223 and B #23224).
# Test compounds were serially diluted in 100% DMSO (J. T. Baker #922401). 2 microL of each dilution was added to appropriate wells of a 96-well plate (each concentration in triplicate). Unlabeled Cmpd A, at a final concentration of 10 microM, was used to determine non-specific binding.
# ^3H-Cmpd A was diluted in binding buffer (50 mM Tris-HCl, pH 7.5, (Sigma #T7443), 10 mM MgCl2 (Fluka 63020), 1 mM EDTA (BioSolutions #BIO260-15), 0.15% bovine serum albumin (Sigma #A7511), 0.01 mg/mL benzamidine (Sigma #B 6506), 0.01 mg/mL bacitracin (Sigma #B 0125), 0.005 mg/mL leupeptin (Sigma #L 8511), 0.005 mg/mL aprotinin (Sigma #A 1153)) to a concentration of 60 nM, and 100 microL added to all wells of 96-well plate (Nalge Nunc #267245).
# Membranes expressing GPR119 were thawed and diluted to a final concentration of 20 μg/100 microL per well in Binding Buffer, and 100 microL of diluted membranes were added to each well of 96-well plate. […]
row,Ki,SMILES
1,3.4 nM and 11 nM,"Cc1c(O[C@H]2CCN(C(=O)OC3(C)CC3)C[C@H]2F)ncnc1N1Cc2cnn(C)c2C1 (racemic) [Example 7, 1-Methylcyclopropyyl (3,4-cis)-3-fluoro-4-{[5-methyl-6-(1-methyl-4,6-dihydropyrrolo[3,4-c]pyrazol-5(1H)-yl)pyrimidin-4-yl]oxy}piperidine-1-carboxylate (racemic)]"
2,130 nM,"Cc1c(O[C@H]2CCN(C(=O)OC(C)(C)C)C[C@@H]2F)ncnc1N1Cc2cnn(C)c2C1 (racemic) [Example 8, tert-Butyl (3,4-trans)-3-fluoro-4-{[5-methyl-6-(1-methyl-4,6-dihydropyrrolo[3,4-c]pyrazol-5(1H)-yl)pyrimidin-4-yl]oxy}piperidine-1-carboxylate (racemic)]"

# The next lines start with the molecule.
row,SMILES,Ki
1,"CC(C)OC(=O)N1CCC(Oc2ncnc(N3Cc4cnn(C)c4C3)c2C#N)CC1 [Example 3, Isopropyyl 4-{[5-cyano-6-(1-methyl-4,6-dihydropyrrolo[3,4-c]pyrazol-5(1H)-yl)pyrimidin-4-yl]oxy}piperidine-1-carboxylate]",233 nM
2,"Cc1c(O[C@H]2[C@@H]3COC[C@H]2CN(C(=O)OC(C)(C)C)C3)ncnc1N1Cc2cnn(C)c2C1 [Example 9, tert-Butyl (9-anti)-9-{[5-methyl-6-(1-methyl-4,6-dihydropyrrolo[3,4-c]pyrazol-5(1H)-yl)pyrimidin-4-yl]oxy}-3-oxa-7-azabicyclo[3.3.1]nonane-7-carboxylate]",51 nM
3,"Cc1c(OC2CCN(C(=O)OC(C)C)CC2)ncnc1N1Cc2cnn(C)c2C1 [Example 2, Isopropyyl 4-{[5-methyl-6-(1-methyl-4,6-dihydropyrrolo[3,4-c]pyrazol-5(1H)-yl)pyrimidin-4-yl]oxy}piperidine-1-carboxylate]",502 nM and 229 nM and 171 nM
4,"Cc1c(O[C@H]2CCN(C(=O)OC(C)(C)C)C[C@H]2F)ncnc1N1Cc2cnn(C)c2C1 (racemic) [Example 6, tert-Butyl (3,4-cis)-3-fluoro-4-{[5-methyl-6-(1-methyl-4,6-dihydropyrrolo[3,4-c]pyrazol-5(1H)-yl)pyrimidin-4-yl]oxy}piperidine-1-carboxylate (racemic)]",36 nM
